Measurements taken from US20230293599A1, “BACTERIAL COMPOSITIONS WITH ANTI-INFLAMMATORY ACTIVITY” (Universiteit Gent, priority 2020, published 2023).

These molecules were tested on P. aeruginosa (assay: Biolog Phenotype Microarray PM1-2 growth on carbon sources). Conditions: not given.
Assay type: cell-based, Pseudomonas aeruginosa
Protocol: (§1) Using Phenotype Microarray (PM) panels (Biolog), the influence of 190 carbon sources on the growth of the potential probiotic species R. mucilaginosa, R. dentocariosa, R. gilardii, G. haemolysans, and common respiratory pathogens P. aeruginosa, and S. aureus was determined. PM1 and PM2 panels (Biolog) were inoculated according to the manufacturer's instructions. Growth curves were generated for 35 hours by measuring the absorbance at 590 nm using an EnVision (Perkin Elmer) plate reader.

Row | Molecule | AUC of growth curve, P. aeruginosa
1 | O=C1O[C@@H]([C@H](O)CO)[C@H](O)[C@H]1O [D-Galactonic-Acid-γ-Lactone] | 397.9
2 | O=C(O)[C@H](O)[C@@H](O)[C@H](O)[C@H](O)CO [D-Gluconic Acid] | 617.8

Same assay, conditions: 35 hours, absorbance 590 nm, n = 1; cells without values AUC < 50

Row | Molecule | AUC of growth curve, P. aeruginosa
3 | C[N+](C)(C)CC(O)CC(=O)[O-] (racemic) [D,L-Carnitine] | 574.6
4 | NCC(O)c1ccc(O)cc1 (racemic) [D,L-Octopamine] | 1142.2
5 | NCCO [2-Aminoethanol] | 293.7
6 | O=C[C@@H](O)[C@H](O[C@@H]1O[C@H](CO)[C@H](O)[C@H](O)[C@H]1O)[C@H](O)CO [3-0-β-D-Galacto-pyranosyl-D-Arabinose] | 188.8
7 | CC(=O)C(C)O (centres unmarked) [3-Hydroxy 2-Butanone] | 183.2
8 | O=C(O)c1ccc(O)cc1 [4-Hydroxy Benzoic Acid] | 909.3
9 | CC(N)=O [Acetamide] | 123.0
10 | CC(O)(CC(=O)O)C(=O)O (centres unmarked) [Citramalic Acid] | 183.9
11 | C[C@@H](N)C(=O)O [D-Alanine] | 668.1
12 | N[C@H](CC(=O)O)C(=O)O [D-Aspartic Acid] | 101.3
13 | OC[C@H]1O[C@@H](O[C@H]2[C@H](O)[C@@H](O)[C@H](O)O[C@@H]2CO)[C@H](O)[C@@H](O)[C@@H]1O [D-Cellobiose] | 70.0
14 | O=C[C@H](O)[C@@H](O)[C@H](O)[C@H](O)COP(=O)(O)O [D-Glucose-6-Phosphate] | 399.6
15 | O=C[C@H](O)[C@@H](O)[C@H](O)[C@H](O)C(=O)O [D-Glucuronic Acid] | 543.2
16 | COC(=O)[C@@H](C)O [D-Lactic Acid Methyl Ester] | 1081.7
17 | OC[C@@H](O)[C@@H](O)[C@H](O)[C@H](O)CO [D-Mannitol] | 420.0
18 | O=C(O)[C@@H](O)[C@@H](O)[C@H](O)[C@@H](O)C(=O)O [D-Saccharic Acid] | 108.8
19 | OC[C@@H](O)[C@H](O)[C@H](O)[C@@H](O)CO [Dulcitol] | 72.0
20 | C=C(CC(=O)O)C(=O)O [Itaconic Acid] | 790.8
21 | NCCc1ccc(O)cc1 [Tyramine] | 684.5
22 | O=C(O)Cc1cccc(O)c1 [m-Hydroxy Phenyl Acetic Acid] | 114.0
23 | O=C(O)Cc1ccc(O)cc1 [p_Hydroxy Phenyl Acetic Acid] | 987.9

These molecules were tested on S. aureus (assay: not given). Conditions: not given.
Assay type: cell-based, Staphylococcus aureus
Protocol: as §1

Row | Molecule | AUC of growth curve, S. aureus
24 | OC[C@H]1O[C@@H](O[C@@H]2[C@@H](CO)OC(O)(CO)[C@H]2O)[C@H](O)[C@@H](O)[C@H]1O (mixture of isomers) [Lactulose] | 656.2
25 | NCC(O)c1ccc(O)cc1 (racemic) [D,L-Octopamine] | 166.2
26 | CC(O)CO (centres unmarked) [1,2-Propanediol] | 150.0
27 | Nc1ncnc2c1ncn2C1CC(O)C(CO)O1 (centres unmarked) [2-Deoxy-Adenosine] | 419.1
28 | O=C[C@@H](O)[C@H](O[C@@H]1O[C@H](CO)[C@H](O)[C@H](O)[C@H]1O)[C@H](O)CO [3-0-β-D-Galacto-pyranosyl-D-Arabinose] | 446.3
29 | CC(=O)C(C)O (centres unmarked) [3-Hydroxy 2-Butanone] | 255.6
30 | O=C(O)c1ccc(O)cc1 [4-Hydroxy Benzoic Acid] | 140.6
31 | CC(N)=O [Acetamide] | 93.1
32 | N#C[C@H](O[C@@H]1O[C@H](CO[C@@H]2O[C@H](CO)[C@@H](O)[C@H](O)[C@H]2O)[C@@H](O)[C@H](O)[C@H]1O)c1ccccc1 [Amygdalin] | 254.6
33 | CCCC(=O)O [Butyric Acid] | 1011.5
34 | CCCCCC(=O)O [Caproic Acid] | 908.9
35 | C/C(=C/C(=O)O)C(=O)O [Citraconic Acid] | 86.7
36 | C[C@@H](N)C(=O)O [D-Alanine] | 464.9
37 | OC[C@@H](O)C(O)[C@H](O)CO [D-Arabitol] | 832.3
38 | N[C@H](CC(=O)O)C(=O)O [D-Aspartic Acid] | 242.2
39 | O=C(O)[C@H](O)[C@@H](O)[C@H](O)[C@H](O)CO [D-Gluconic Acid] | 321.0
40 | N[C@@H](C(=O)O)[C@@H](O)[C@H](O)[C@H](O)CO [D-Glucosaminic Acid] | 267.3
41 | O=P(O)(O)O[C@H]1O[C@H](CO)[C@@H](O)[C@H](O)[C@H]1O [D-Glucose-1-Phosphate] | 189.0
42 | O=C[C@H](O)[C@@H](O)[C@H](O)[C@H](O)COP(=O)(O)O [D-Glucose-6-Phosphate] | 168.0
43 | O=C[C@H](O)[C@@H](O)[C@H](O)[C@H](O)C(=O)O [D-Glucuronic Acid] | 292.7
44 | COC(=O)[C@@H](C)O [D-Lactic Acid Methyl Ester] | 517.2

Row | Molecule | AUC of growth curve, S. aureus
45 | OC[C@@H](O)[C@@H](O)[C@H](O)[C@H](O)CO [D-Mannitol] | 884.6
46 | OC[C@H]1O[C@H](OC[C@H]2O[C@H](O[C@]3(CO)O[C@H](CO)[C@@H](O)[C@@H]3O)[C@H](O)[C@@H](O)[C@@H]2O)[C@H](O)[C@@H](O)[C@H]1O [D-Rafinose] | 282.1
47 | O=C1O[C@H](CO)[C@@H](O)[C@H]1O [D-Ribono-1,4-Lactone] | 100.2
48 | O=C(O)[C@@H](O)[C@@H](O)[C@H](O)[C@@H](O)C(=O)O [D-Saccharic Acid] | 57.3
49 | N[C@H](CO)C(=O)O [D-Serine] | 76.2
50 | C[C@H](O)[C@@H](N)C(=O)O [D-Threonine] | 87.8
51 | O=CO [Formic Acid] | 474.0
52 | O=C(O)CO [Glycolic Acid] | 344.8
53 | C[C@H](N)C(N)=O [L-Alaninamide] | 295.4
54 | OC[C@H](O)C(O)[C@@H](O)CO [L-Arabitol] | 165.7
55 | O=C[C@@H](O)[C@H](O)[C@@H](O)[C@@H](O)CO [L-Glucose] | 314.7
56 | N[C@@H](CO)C(=O)O [L-Serine] | 558.2
57 | O=C(O)[C@H](O)[C@@H](O)C(=O)O [L-Tartaric Acid] | 163.4
58 | C[C@@H](O)[C@H](N)C(=O)O [L-Threonine] | 754.3
59 | OC[C@@H](O)[C@@H](O[C@@H]1O[C@H](CO)[C@H](O)[C@H](O)[C@H]1O)[C@H](O)[C@@H](O)CO [Lactitol] | 338.8
60 | OC[C@@H](O)[C@@H](O[C@H]1O[C@H](CO)[C@@H](O)[C@H](O)[C@H]1O)[C@H](O)[C@@H](O)CO [Maltitol] | 783.0
61 | O=C(O)[C@H](O)[C@@H](O)[C@H](O)[C@H](O)CO[C@H]1O[C@H](CO)[C@H](O)[C@H](O)[C@H]1O [Melibionic Acid] | 270.3
62 | COC(=O)CCC(=O)O [Mono Methyl Succinate] | 532.1
63 | CC(=O)N[C@H]1C(O)O[C@H](CO)[C@H](O)[C@@H]1O (stereo partly drawn) [N-Acetyl-D-Galactosamine] | 59.3
64 | CC(=O)N[C@@H](CO)[C@@H](O)[C@H](O)[C@H](O)CO [N-Acetyl-D-Glucosaminitol] | 381.9
65 | CC(=O)N[C@H]1[C@H]([C@H](O)[C@H](O)CO)OC(O)(C(=O)O)C[C@@H]1O (some centres unmarked) [N-Acetyl-Neuraminic Acid] | 647.5

Row | Molecule | AUC of growth curve, S. aureus
66 | O=C(O)C(=O)O [Oxalic Acid] | 463.7
67 | O=C(O)CCCCCCCCC(=O)O [Sebacic Acid] | 252.2
68 | OC[C@@]12OC[C@@H](O1)[C@@H](O)[C@@H](O)[C@@H]2O [Sedoheptulosan] | 277.8
69 | OC[C@H]1O[C@H](OC[C@H]2O[C@H](OC[C@H]3O[C@H](O[C@]4(CO)O[C@H](CO)[C@@H](O)[C@@H]4O)[C@H](O)[C@@H](O)[C@@H]3O)[C@H](O)[C@@H](O)[C@H]2O)[C@H](O)[C@@H](O)[C@H]1O [Stachyose] | 324.4
70 | Cc1cn([C@H]2C[C@H](O)[C@@H](CO)O2)c(=O)[nH]c1=O [Thymidine] | 735.9
71 | OC[C@@H](O)[C@H](O)[C@@H](O)CO [Xylitol] | 280.8
72 | O[C@H]1[C@H](O)[C@@H](O)[C@H](O)[C@@H](O)[C@H]1O [m-inositol] | 157.9
73 | OC[C@H]1O[C@@H](O[C@H]2[C@H](O)[C@@H](O)[C@@H](O)O[C@@H]2CO)[C@H](O)[C@@H](O)[C@H]1O [α-D-Lactose] | 764.6
74 | CCC(O)C(=O)O (stereo not drawn) [α-Hydroxy-Butyric Acid] | 567.8
75 | O=C1CCC(C(=O)O)O1 (stereo not drawn) [α-Hydroxy-Glutaric Acid γ-Lactone] | 112.1
76 | CCCC(=O)C(=O)O [α-Keto-Valeric Acid] | 734.6
77 | CO[C@H]1O[C@H](CO)[C@@H](O)[C@H](O)[C@H]1O [α-Methyl-D-Glucoside] | 281.5
78 | COC1OC(CO)C(O)C(O)C1O [α-Methyl-D-Mannoside] | 264.2
79 | OC[C@H]1O[C@@H](O)[C@H](O)[C@H](O)[C@@H]1O [β-D-Allose] | 122.9
80 | CC(O)CC(=O)O (stereo not drawn) [β-Hydroxy Butyric Acid] | 326.7
81 | CO[C@@H]1O[C@H](CO)[C@@H](O)[C@H](O)[C@H]1O [β-Methyl-D-Galactoside] | 358.9
82 | CO[C@@H]1O[C@H](C(=O)O)[C@@H](O)[C@H](O)[C@H]1O [β-Methyl-D-Glucuronic Acid] | 400.6
83 | COC1OCC(O)C(O)C1O [β-Methyl-D-Xyloside] | 166.1
84 | O=C(O)CCCO [γ-Hydroxy Butyric Acid] | 343.7
85 | Tween 20 | 214.4
86 | Tween 80 | 468.6

Same assay, conditions: 35 hours, absorbance 590 nm, n = 1; cells without values AUC < 50

Row | Molecule | AUC of growth curve, S. aureus
87 | CC(=O)O [Acetic Acid] | 898.7
88 | OC[C@H]1O[C@@H](O[C@H]2[C@H](O)[C@@H](O)[C@H](O)O[C@@H]2CO)[C@H](O)[C@@H](O)[C@@H]1O [D-Cellobiose] | 495.8
89 | NCCCC[C@H](N)C(=O)O [L-Lysine] | 331.6
90 | Chondroitin Sulfate C | 199.7
91 | Gelatin | 52.4
92 | Gentiobiose | 471.4
93 | Glycogen | 197.7
94 | Laminarin | 192.8
95 | Mannan | 154.5
